Measured values from ChEMBL document CHEMBL1144039, “Antioxidant capacity of BO-653, 2,3-dihydro-5-hydroxy-4,6-di-tert-butyl-2,2-dipentylbenzofuran, and uric acid as evaluated by ORAC method and inhibition of lipid peroxidation” (2008).

Key:
[1] = Antioxidant activity assessed as oxygen radical scavenging activity in presence of human plasma by ORAC method relative to control; format: functional, cell-free
[2] = system: Plasma; experiment: Antioxidant activity in human plasma assessed as inhibition of cholesteryl ester hydroperoxide formation after 60 mins relative to control; format: functional

## CCCCCC1(CCCCC)Cc2c(cc(C(C)(C)C)c(O)c2C(C)(C)C)O1 [BO-653]
[1]
  Ratio AUC: 1.23
[2]
  Ratio: 0.23

## Oc1nc(O)c2nc(O)[nH]c2n1 [URIC ACID]
[1]
  Ratio AUC: 1.52
[2]
  Ratio: 0.78
